Measured values taken from patent publication US11407719B2, “Anti-inflammatory agents” (Resverlogix Corp., priority 2009, dated 2022).

Columns and labels:
VCAM-1 mRNA = assay: Quantification of hVCAM mRNA; assay type: cell-based, human; design: key: Active: an active compound is one that causes a ≥20% inhibition in VCAM-1 mRNA at a concentration less than or equal to 10 μM; -1 mRNA at a concentration less than or equal to 10 μM; conditions: VCAM-1 mRNA by real-time PCR; HUVECs, 1 h pretreatment, tumor necrosis factor-α stimulation 24 h; concentration ≤10 μM
Experimental: In this example, […] in tissue culture cells was quantitated to measure the transcriptional inhibition of hVCAM when treated with a compound of the invention.
Human umbilical vein endothelial cells (HUVECs) were plated in a 96-well plate (4.0×10^3 cells/well) in 100 μL EGM media and incubated for 24 h prior to the addition of the compound of interest. The cells were pretreated for 1 h with the test compound prior to stimulation with tumor necrosis factor-α. The cells were incubated for an additional 24 h before the cells were harvested. At time of harvest, the spent media was removed from the HUVECs and rinsed in 200 μL PBS. Cell lysis solution (70 μL) was then added the cells in each well and incubated for ˜5-10 min at room temperature, to allow for complete cell lysis and detachment. mRNA was then prepared using the “mRNA Catcher PLUS plate” (Invitrogen), according to the protocol supplied. After the last wash, as much wash buffer as possible was aspirated without allowing the wells to dry. Elution buffer (E3, 70 μL) was then added to each well. mRNA was then eluted by incubating the mRNA Catcher PLUS plate with elution buffer for 5 min at 68° C. and then immediately placing the plate on ice.
The eluted mRNA so isolated was then used in a one-step quantitative real-time PCR reaction, using components of the Ultra Sense Kit together with Applied Biosystems primer-probe mixes. Real-time PCR data was analyzed, normalizing the Ct values for hVCAM to an internal control, prior to determining the fold induction of each unknown sample, relative to the control.

hIL-6 mRNA = assay: Quantification of hIL-6 mRNA; assay type: cell-based, human; design: key: Active: an active compound is one that causes a ≥20% inhibition in IL-6 mRNA at a concentration less than or equal to 10 μM; conditions: IL-6 mRNA by real-time PCR; differentiated U937 cells, 1 h pretreatment, lipopolysaccharide stimulation 3 h; concentration ≤10 μM
Procedure, shortened: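 U937 cells, differentiated for 3 days, were pretreated with compound for 1 h and then stimulated with E. coli LPS for 3 h at 37 °C. IL-6 mRNA was quantified by one-step qRT-PCR, with Ct normalized to an internal control, and fold induction was expressed relative to control.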

Q: Which results are given for `Cc1cc(-c2nc3cc(Cl)cc(Cl)c3c(=O)[nH]2)cc(C)c1OCCN1CCCC1` [5,7-Dichloro-2-(3,5-dimethyl-4-(2-(pyrrolidin-1-yl)ethoxy)phenyl)quinazolin-4(3H)-one]?
A: melting point: 209 to 210 °C; Inhibition of VCAM-1 expression (VCAM-1 mRNA): Active; Inhibition of IL-6 expression (hIL-6 mRNA): Active

Q: For `COCCOc1cc(OCCOC)c2c(=O)[nH]c(-c3cc(C)nc(C)c3)nc2c1` [2-(2,6-Dimethylpyridin-4-yl)-5,7-bis(2-methoxyethoxy)quinazolin-4(3H)-one], which melting point is on record?
A: The melting point was 149.8 to 151.4 °C.

Q: What about the “Inhibition of VCAM-1 expression” value (VCAM-1 mRNA) of the same compound?
A: Its value is “Active”.

Q: What about the “Inhibition of IL-6 expression” value (hIL-6 mRNA) of the same compound?
A: The value was “Active”.

Q: With `COCCOc1cc(OCCN2CCCC2)c2c(=O)[nH]c(-c3cc(C)nc(C)c3)nc2c1` [2-(2,6-Dimethylpyridin-4-yl)-7-(2-methoxyethoxy)-5-(2-(pyrrolidin-1-yl)ethoxy)quinazolin-4(3H)-one] as the compound, how does the melting point read?
A: Its melting point is 60.4 to 62.3 °C.

Q: What about the “Inhibition of VCAM-1 expression” value (VCAM-1 mRNA) of the same compound?
A: The value was “Active”.

Q: What about the “Inhibition of IL-6 expression” value (hIL-6 mRNA) of the same compound?
A: The value was “Active”.

Q: Which results are given for `COc1cc(OC)c2c(=O)[nH]c(-c3ccc(OCCN4CCCC4)c(C)c3)nc2c1` [5,7-Dimethoxy-2-(3-methyl-4-(2-(pyrrolidin-1-yl)ethoxy)phenyl)quinazolin-4(3H)-one]?
A: melting point: 230 to 231 °C; Inhibition of VCAM-1 expression (VCAM-1 mRNA): Active; Inhibition of IL-6 expression (hIL-6 mRNA): Active

Q: Which results are given for `COc1cc(OC)c2c(=O)[nH]c(-c3cc(C)c(OCCn4ccnc4)c(C)c3)nc2c1` [2-(4-(2-(1H-Imidazol-1-yl)ethoxy)-3,5-dimethylphenyl)-5,7-dimethoxyquinazolin-4(3H)-one]?
A: melting point: 218 to 219 °C; Inhibition of VCAM-1 expression (VCAM-1 mRNA): Active; Inhibition of IL-6 expression (hIL-6 mRNA): Active

Q: Which results are given for `COc1cc(OCCNC(C)=O)cc(-c2nc3cc(OC)cc(OC)c3c(=O)[nH]2)c1` [N-(2-(3-(5,7-dimethoxy-4-oxo-3,4-dihydroquinazolin-2-yl)-5-methoxyphenoxy)ethyl)acetamide]?
A: melting point: 264 to 265 °C; Inhibition of VCAM-1 expression (VCAM-1 mRNA): Active; Inhibition of IL-6 expression (hIL-6 mRNA): Active

Q: What does the source list for `COCCOc1cc(OC)c2c(=O)[nH]c(-c3ccc(N4C[C@@H](C)N(C(C)=O)[C@@H](C)C4)cc3)nc2c1` [2-(4-((3R,5S)-4-Acetyl-3,5-dimethylpiperazin-1-yl)phenyl)-5-methoxy-7-(2-methoxyethoxy)quinazolin-4(3H)-one]?
A: melting point: 225 to 227 °C; Inhibition of IL-6 expression (hIL-6 mRNA): Active

Q: What does the source list for `COc1cc(OC)c2c(=O)[nH]c(-c3ccc(OCCN4CCCC4)cc3)nc2c1` [5,7-Dimethoxy-2-(4-(2-(pyrrolidin-1-yl)ethoxy)phenyl)quinazolin-4(3H)-one]?
A: melting point: 226 to 227 °C; Inhibition of IL-6 expression (hIL-6 mRNA): Active

Q: What does the source list for `COc1cc(OC)c2c(=O)[nH]c(-c3ccc(Cc4nnn[nH]4)cc3)nc2c1` [2-(4-((1H-Tetrazol-5-yl)methyl)phenyl)-5,7-dimethoxyquinazolin-4(3H)-one]?
A: melting point: 295 to 296 °C; Inhibition of IL-6 expression (hIL-6 mRNA): Active

Q: With `COc1cc(OCCN2CCCC2)c2c(=O)[nH]c(-c3cc(C)nc(C)c3)nc2c1` [2-(2,6-Dimethylpyridin-4-yl)-7-methoxy-5-(2-(pyrrolidin-1-yl)ethoxy)quinazolin-4(3H)-one] as the compound, how does the melting point read?
A: Its melting point is 190 to 191 °C.

Q: And the “Inhibition of VCAM-1 expression” value (VCAM-1 mRNA)?
A: Its value is “Active”.

Q: And the “Inhibition of IL-6 expression” value (hIL-6 mRNA)?
A: Its value is “Active”.

Q: With `COc1cc(OCCN2CCCC2)cc2nc(-c3cc(C)nc(C)c3)[nH]c(=O)c12` [2-(2,6-Dimethylpyridin-4-yl)-5-methoxy-7-(2-(pyrrolidin-1-yl)ethoxy)quinazolin-4(3H)-one] as the compound, how does the melting point read?
A: The melting point was 227 to 229 °C.

Q: What about the “Inhibition of VCAM-1 expression” value (VCAM-1 mRNA) of the same compound?
A: Its value is “Inactive”.

Q: And the “Inhibition of IL-6 expression” value (hIL-6 mRNA)?
A: The value was “Active”.

Q: Which results are given for `Cc1cc(-c2nc3cccc(Cl)c3c(=O)[nH]2)cc(C)c1OCCN1CCCC1` [5-Chloro-2-(3,5-dimethyl-4-(2-(pyrrolidin-1-yl)ethoxy)phenyl)quinazolin-4(3H)-one]?
A: melting point: 179 to 180 °C; Inhibition of VCAM-1 expression (VCAM-1 mRNA): Active; Inhibition of IL-6 expression (hIL-6 mRNA): Active

Q: Which results are given for `COc1cc(OC)c2c(=O)[nH]c(-c3cc(C)c(OCCN4C(=O)NC(c5ccccc5)C4=O)c(C)c3)nc2c1` (stereo not shown) [3-(2-(4-(5,7-Dimethoxy-4-oxo-3,4-dihydroquinazolin-2-yl)-2,6-dimethylphenoxy)ethyl)-5-phenylimidazolidine-2,4-dione]?
A: melting point: 219.6 to 221.4 °C; Inhibition of VCAM-1 expression (VCAM-1 mRNA): Active; Inhibition of IL-6 expression (hIL-6 mRNA): Active

Q: Which results are given for `COc1cc(OC)c2c(=O)[nH]c(-c3cc(C)c(OCCN4CCN(C(C)=O)CC4)c(C)c3)nc2c1` [2-(4-(2-(4-Acetylpiperazin-1-yl)ethoxy)-3,5-dimethylphenyl)-5,7-dimethoxyquinazolin-4(3H)-one]?
A: melting point: 213 to 214 °C; Inhibition of VCAM-1 expression (VCAM-1 mRNA): Active; Inhibition of IL-6 expression (hIL-6 mRNA): Active

Q: Which melting point does the source give for `COc1cc(OC)c2c(=O)[nH]c(-c3cc(C)c(OCCN4CCCCCC4)c(C)c3)nc2c1` [2-(4-(2-(Azepan-1-yl)ethoxy)-3,5-dimethylphenyl)-5,7-dimethoxyquinazolin-4(3H)-one] here?
A: The melting point was 198 to 199 °C.

Q: What about the “Inhibition of VCAM-1 expression” value (VCAM-1 mRNA) of the same compound?
A: The value was “Active”.

Q: What about the “Inhibition of IL-6 expression” value (hIL-6 mRNA) of the same compound?
A: The value was “Active”.

Q: Which melting point does the source give for `COc1cc(OC)c2c(=O)[nH]c(-c3cc(C)c(OCCN4C(=O)CN(C(C)C)C4=O)c(C)c3)nc2c1` [3-(2-(4-(5,7-Dimethoxy-4-oxo-3,4-dihydroquinazolin-2-yl)-2,6-dimethylphenoxy)ethyl)-1-isopropylimidazolidine-2,4-dione] here?
A: Its melting point is 219 to 221 °C.

Q: And the “Inhibition of VCAM-1 expression” value (VCAM-1 mRNA)?
A: The value was “Active”.

Q: What about the “Inhibition of IL-6 expression” value (hIL-6 mRNA) of the same compound?
A: The value was “Active”.

Q: With `Cc1cc(-c2nc3c(Cl)cccc3c(=O)[nH]2)cc(C)c1OCCN1CCCC1` [8-Chloro-2-(3,5-dimethyl-4-(2-(pyrrolidin-1-yl)ethoxy)phenyl)quinazolin-4(3H)-one] as the compound, how does the melting point read?
A: The melting point was 216 to 217 °C.

Q: And the “Inhibition of IL-6 expression” value (hIL-6 mRNA)?
A: The value was “Active”.

Q: For `Cc1cc(-c2nc3cc(OCCOC(C)C)cc(OCCOC(C)C)c3c(=O)[nH]2)cc(C)n1` [2-(2,6-dimethylpyridin-4-yl)-5,7-bis(2-isopropoxyethoxy)quinazolin-4(3H)-one], which melting point is on record?
A: The melting point was 124 to 125 °C.

Q: And the “Inhibition of VCAM-1 expression” value (VCAM-1 mRNA)?
A: The value was “Active”.

Q: What about the “Inhibition of IL-6 expression” value (hIL-6 mRNA) of the same compound?
A: The value was “Active”.

Q: For `COc1cccc2nc(-c3cc(C)c(OCCN4CCCC4)c(C)c3)[nH]c(=O)c12` [2-(3,5-Dimethyl-4-(2-(pyrrolidin-1-yl)ethoxy)phenyl)-5-methoxyquinazolin-4(3H)-one], which melting point is on record?
A: Its melting point is 157 to 158 °C.

Q: What about the “Inhibition of VCAM-1 expression” value (VCAM-1 mRNA) of the same compound?
A: The value was “Active”.

Q: What about the “Inhibition of IL-6 expression” value (hIL-6 mRNA) of the same compound?
A: Its value is “Active”.

Q: What does the source list for `COc1cc(OC)c2c(=O)[nH]c(-c3cc(C)c(OCCN4CCC4)c(C)c3)nc2c1` [2-(4-(2-(Azetidin-1-yl)ethoxy)-3,5-dimethylphenyl)-5,7-dimethoxyquinazolin-4(3H)-one]?
A: melting point: 204 to 205 °C; Inhibition of IL-6 expression (hIL-6 mRNA): Active

Q: Which results are given for `Cc1cc(-c2nc3ccc(CN4CCN(C)CC4)cc3c(=O)[nH]2)cc(C)n1` [2-(2,6-Dimethylpyridin-4-yl)-6-((4-methylpiperazin-1-yl)methyl)quinazolin-4(3H)-one]?
A: melting point: 229 to 230 °C; Inhibition of IL-6 expression (hIL-6 mRNA): Active

Q: Which melting point does the source give for `Cc1cc(C)c2c(=O)[nH]c(-c3cc(C)c(OCCN4CCCC4)c(C)c3)nc2c1` [2-(3,5-Dimethyl-4-(2-(pyrrolidin-1-yl)ethoxy)phenyl)-5,7-dimethylquinazolin-4(3H)-one] here?
A: The melting point was 181 to 182 °C.

Q: And the “Inhibition of IL-6 expression” value (hIL-6 mRNA)?
A: Its value is “Active”.

Q: What does the source list for `COc1cc(OC)c2c(=O)[nH]c(-c3cc(C)nc(C)c3)nc2c1` [2-(2,6-Dimethylpyridin-4-yl)-5,7-dimethoxyquinazolin-4(3H)-one]?
A: melting point: 291 to 292 °C; Inhibition of IL-6 expression (hIL-6 mRNA): Active

Q: Which melting point does the source give for `COc1cc(OC)c2c(=O)[nH]c(-c3ccc(N4CCC(O)CC4)cc3)nc2n1` [2-(4-(4-Hydroxypiperidin-1-yl)phenyl)-5,7-dimethoxypyrido[2,3-d]pyrimidin-4(3H)-one] here?
A: Its melting point is 284 to 286 °C.

Q: What about the “Inhibition of IL-6 expression” value (hIL-6 mRNA) of the same compound?
A: The value was “Active”.

Q: Which melting point does the source give for `COc1cc(OC)c2c(=O)[nH]c(-c3cc(C)c(OCCN4CC(NC(C)=O)C4)c(C)c3)nc2c1` [N-(1-(2-(4-(5,7-Dimethoxy-4-oxo-3,4-dihydroquinazolin-2-yl)-2,6-dimethylphenoxy)ethyl)azetidin-3-yl)acetamide] here?
A: Its melting point is 111.8 to 113.6 °C.

Q: And the “Inhibition of IL-6 expression” value (hIL-6 mRNA)?
A: Its value is “Active”.

Q: With `COCCOc1cc(OC)c2c(=O)[nH]c(-c3cc(C)nc(C)c3)nc2c1` [2-(2,6-Dimethylpyridin-4-yl)-5-methoxy-7-(2-methoxyethoxy)quinazolin-4(3H)-one] as the compound, how does the melting point read?
A: Its melting point is 228.8 to 230.4 °C.

Q: What about the “Inhibition of IL-6 expression” value (hIL-6 mRNA) of the same compound?
A: The value was “Active”.
